# Measured values: US20240218022A1, “ANTI-VISTA MACROCYCLIC PEPTIDES AND COMPOSITIONS” (BRISTOL-MYERS SQUIBB COMPANY, priority 2022, published 2024)
# Where two headings read alike, the source gives them in different places. Starred links: 1 amine or outer side, 2 acyl side, 3 side chain; linkers in the order of their positions; H or OH if unused. Positions of bridges follow the written chain, without caps; N, C: chain ends. Non-standard residues stand in square brackets, D forms with d. Residues, ends and D or L forms follow the SMILES beside them. Phe(3-Me) = Cc1cccc(C[C@H](N)C(=O)O)c1; γGlu = O=C(O)[C@H](CCC(=O)[*:2])N[*:1]; 2Nal = N[C@@H](Cc1ccc2ccccc2c1)C(=O)O; βAsp = O=C(O)[C@H](CC(=O)[*:2])N[*:1]; NMeL = CN[C@@H](CC(C)C)C(=O)O; Ahp(2) = CCCCC[C@H](N)C(=O)O; NMeNle = CCCC[C@H](NC)C(=O)O; Tle = CC(C)(C)[C@H](N)C(=O)O; NMeS = CN[C@@H](CO)C(=O)O; NHexGly = CCCCCCNCC(=O)O; Nle = CCCC[C@H](N)C(=O)O; Orn = NCCC[C@H](N)C(=O)O; Aun = NCCCCCCCCCCC(=O)O; AEEA = NCCOCCOCC(=O)O
# Molecular target: T1, mouse VISTA (mVISTA) (Mus musculus, UniProt Q9D659)
# T1 construct: expressed in transfected cells; host or cells: Human embryonic kidney 293T cells
# T1 sequence (Q9D659 33-308): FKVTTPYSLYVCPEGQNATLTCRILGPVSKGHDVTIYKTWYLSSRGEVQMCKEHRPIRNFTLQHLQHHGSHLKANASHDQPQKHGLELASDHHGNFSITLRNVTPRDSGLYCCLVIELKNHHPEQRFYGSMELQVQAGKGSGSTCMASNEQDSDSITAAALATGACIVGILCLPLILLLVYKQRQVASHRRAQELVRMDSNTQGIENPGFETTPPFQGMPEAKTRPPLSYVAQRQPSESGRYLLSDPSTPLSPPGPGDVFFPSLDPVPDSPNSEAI
# Assay: Cell-Based Binding High-Content Assay For mVISTA (HC CBA mVISTA)
# Summary of the method: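 Read-out: Alexa 647–streptavidin signal imaged on fixed, Hoechst-stained mVISTA-293T cells, with IC50 taken from a four-parameter logistic curve. Compounds competed with 2 nM biotinylated peptide for 30 min at room temperature, tested under both no-wash and wash (1 h compound, media exchange, 1 h) formats.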
# [1] = cell-based binding high-content assay, mVISTA, the 16th table, read-out: HC CBA mVISTA IC50
# [2] = the 19th table, scaffold drawing 22, read-out: HC CBA mVISTA IC50
# [3] = 293T cells expressing mouse VISTA, competition with biotinylated peptide (2 nM), read-out: HC CBA mVISTA IC50
smiles,measurement,setting,value
CCCCCCN1CC(=O)N[C@@H](Cc2ccc(O)cc2)C(=O)N[C@@H](CC(C)C)C(=O)N[C@@H](CC(N)=O)C(=O)N[C@@H](CCCN)C(=O)N(C)[C@@H](CO)C(=O)N[C@@H](CCCCC)C(=O)N2CCC[C@H]2C(=O)N[C@@H](C(C)(C)C)C(=O)N[C@@H](CC(=O)O)C(=O)N[C@H](C(=O)N[C@@H](CC(=O)NCCOCCOCC(=O)N[C@@H](CC(=O)O)C(=O)NCCOCCOCC(=O)NCCCCCCCCCCC(=O)O)C(=O)O)CSCC(=O)N[C@@H](Cc2ccccc2)C(=O)N[C@@H](Cc2ccc(O)cc2)C(=O)N[C@@H](CC(=O)O)C1=O [compound 2044] ({CH2CO}-FYD[NHexGly]YLN[Orn][NMeS][Ahp(2)]P[Tle]DC[βAsp][AEEA]D[AEEA][Aun]-OH; thioether N-14),IC50,"cell-based binding high-content assay, mVISTA, read-out: HC CBA miPr ISTA IC50",41.2 nM
CCCCCCN1CC(=O)N[C@@H](Cc2ccc(O)cc2)C(=O)N[C@@H](CC(C)C)C(=O)NCC(=O)N[C@@H](CCCNC(=N)N)C(=O)N[C@@H](CCCCN)C(=O)N[C@@H](CCCCC)C(=O)N2CCC[C@H]2C(=O)N[C@@H](C(C)C)C(=O)N[C@@H](CO)C(=O)N[C@H](C(=O)NCC(=O)O)CSCC(=O)N[C@@H](Cc2ccc3ccccc3c2)C(=O)N[C@@H](Cc2ccc(O)cc2)C(=O)N[C@@H](CC(=O)O)C1=O [Ex 1296] ({CH2CO}-[2Nal]YD[NHexGly]YLGRK[Ahp(2)]PVSCG-OH; thioether N-14),IC50,[1],17.3 nM
CCCCCCN1CC(=O)N[C@@H](Cc2ccc(O)cc2)C(=O)N[C@@H](CCCC)C(=O)N[C@@H](CC(N)=O)C(=O)N[C@@H](CCCNC(=N)N)C(=O)N(C)[C@@H](CCCC)C(=O)N[C@@H](CCCCC)C(=O)N2CCC[C@H]2C(=O)N[C@@H](C(C)(C)C)C(=O)N[C@@H](CO)C(=O)N[C@H](C(=O)N[C@@H](CC(=O)NCCOCCOCC(=O)NCCCCCCCCCCC(=O)O)C(=O)O)CSCC(=O)N[C@@H](Cc2ccccc2)C(=O)N[C@@H](Cc2c[nH]c3ccccc23)C(=O)N[C@@H](CC(=O)O)C1=O [Example 2191] ({CH2CO}-FWD[NHexGly]Y[Nle]NR[NMeNle][Ahp(2)]P[Tle]SC[βAsp][AEEA][Aun]-OH; thioether N-14),IC50,read-out: HC CBA mVISTA IC50,19.7 nM
CCCCCCN1CC(=O)N[C@@H](Cc2ccc(O)cc2)C(=O)N[C@@H](CCCC)C(=O)N[C@@H](CC(=O)O)C(=O)N[C@@H](CCCNC(=N)N)C(=O)N[C@@H](CC(C)C)C(=O)N[C@@H](CCCCC)C(=O)N2CCC[C@H]2C(=O)N[C@@H](C(C)C)C(=O)N[C@@H](CC(=O)O)C(=O)N[C@H](C(=O)N[C@@H](CC(=O)O)C(N)=O)CSCC(=O)N[C@@H](Cc2cccc(C)c2)C(=O)N[C@@H](Cc2c[nH]c3ccccc23)C(=O)N[C@@H](CC(=O)O)C1=O [compound 1419] ({CH2CO}-[Phe(3-Me)]WD[NHexGly]Y[Nle]DRL[Ahp(2)]PVDCD-NH2; thioether N-14),IC50,[2],8.1 nM
CCCCCCN1CC(=O)N[C@@H](Cc2ccc(O)cc2)C(=O)N[C@@H](CCCCC)C(=O)N[C@@H](CC(N)=O)C(=O)N[C@@H](CCCNC(=N)N)C(=O)N[C@@H](C)C(=O)N[C@@H](CCCCC)C(=O)N2CCC[C@H]2C(=O)N[C@@H](C(C)C)C(=O)N[C@@H](CO)C(=O)N[C@H](C(=O)NCC(N)=O)CSCC(=O)N[C@@H](Cc2ccccc2)C(=O)N[C@@H](Cc2ccc(O)cc2)C(=O)N[C@@H](CC(=O)O)C1=O [Example 1089] ({CH2CO}-FYD[NHexGly]Y[Ahp(2)]NRA[Ahp(2)]PVSCG-NH2; thioether N-14),IC50,[3],37.9 nM
CCCCCCN1CC(=O)N[C@@H](Cc2ccc(O)cc2)C(=O)N[C@@H](CCCC)C(=O)N[C@@H](CC(N)=O)C(=O)N[C@@H](CCCNC(N)=O)C(=O)N(C)[C@@H](CCCC)C(=O)N[C@@H](CCCCC)C(=O)N2CCC[C@H]2C(=O)N[C@@H](C(C)C)C(=O)N[C@@H](CO)C(=O)N[C@H](C(=O)NCCOCCOCC(=O)N[C@@H](CC(=O)O)C(=O)NCCOCCOCC(=O)NCCCCCCCCCCC(=O)O)CSCC(=O)N[C@@H](Cc2ccccc2)C(=O)N[C@@H](Cc2c[nH]c3ccccc23)C(=O)N[C@@H](CC(=O)O)C1=O (stereo in doubt) [compound 2317],IC50,"cell-based binding high-content assay, read-out: HC CBA miPrISTA IC50",18.3 nM
CCCCCCN1CC(=O)N[C@@H](Cc2ccc(O)cc2)C(=O)N[C@@H](CCCCC)C(=O)N[C@@H](C)C(=O)N[C@@H](CCCNC(=N)N)C(=O)N[C@@H](CC(C)C)C(=O)N[C@@H](CCCCC)C(=O)N2CCC[C@H]2C(=O)N[C@@H](C(C)C)C(=O)N[C@@H](CO)C(=O)N[C@H](C(=O)NCC(=O)O)CSCC(=O)N[C@@H](Cc2ccccc2)C(=O)N[C@@H](Cc2ccc(O)cc2)C(=O)N[C@@H](CC(=O)O)C1=O [Example 1042] ({CH2CO}-FYD[NHexGly]Y[Ahp(2)]ARL[Ahp(2)]PVSCG-OH; thioether N-14),IC50,[3],36.3 nM
CCCCCCN1CC(=O)N[C@@H](Cc2ccc(O)cc2)C(=O)N[C@@H](C(C)C)C(=O)NCC(=O)N[C@@H](CCCNC(=N)N)C(=O)N[C@@H](CC(C)C)C(=O)N[C@@H](CCCCC)C(=O)N2CCC[C@H]2C(=O)N[C@@H](C(C)C)C(=O)N[C@@H](CCCNC(=N)N)C(=O)N[C@H](C(=O)NCC(=O)O)CSCC(=O)N[C@@H](Cc2ccc3ccccc3c2)C(=O)N[C@@H](Cc2c[nH]c3ccccc23)C(=O)N[C@@H](CC(=O)O)C1=O [compound 1230] ({CH2CO}-[2Nal]WD[NHexGly]YVGRL[Ahp(2)]PVRCG-OH; thioether N-14),IC50,"cell-based binding high-content assay, mVISTA, the 15th table, read-out: HC CBA mVISTA IC50",5.7 nM
CCCCCCN1CC(=O)N[C@@H](Cc2ccc(O)cc2)C(=O)N[C@@H](CC(C)C)C(=O)N[C@@H](CC(N)=O)C(=O)N[C@@H](CCCNC(=N)N)C(=O)N(C)[C@@H](CC(C)C)C(=O)N[C@@H](CCCCC)C(=O)N2CCC[C@H]2C(=O)N[C@@H](C(C)(C)C)C(=O)N[C@@H](CC(=O)O)C(=O)N[C@H](C(=O)NCCOCCOCC(=O)N[C@@H](CCC(=O)NCCOCCOCC(=O)NCCCCCCCCCCC(=O)O)C(=O)O)CSCC(=O)N[C@@H](Cc2ccccc2)C(=O)N[C@@H](Cc2c[nH]c3ccccc23)C(=O)N[C@@H](CC(=O)O)C1=O [compound 2269] ({CH2CO}-FWD[NHexGly]YLNR[NMeL][Ahp(2)]P[Tle]DC[AEEA][γGlu][AEEA][Aun]-OH; thioether N-14),IC50,read-out: HC CBA mVISTA IC50,28.2 nM
CCCCCCN1CC(=O)N[C@@H](Cc2ccc(O)cc2)C(=O)N[C@@H](CCCC)C(=O)N[C@@H](CC(=O)O)C(=O)N[C@@H](CCCNC(=N)N)C(=O)N[C@@H](CC(C)C)C(=O)N[C@@H](CCCCC)C(=O)N2CCC[C@H]2C(=O)N[C@@H](C(C)C)C(=O)N[C@@H](CC(=O)O)C(=O)N[C@H](C(=O)N[C@@H](CO)C(N)=O)CSCC(=O)N[C@@H](Cc2ccccc2)C(=O)N[C@@H](Cc2c[nH]c3ccccc23)C(=O)N[C@@H](CC(=O)O)C1=O [Example 1366] ({CH2CO}-FWD[NHexGly]Y[Nle]DRL[Ahp(2)]PVDCS-NH2; thioether N-14),IC50,read-out: HC CBA mVISTA IC50,11.6 nM
CCCCCCN1CC(=O)N[C@@H](Cc2ccc(O)cc2)C(=O)N[C@@H](CC(C)C)C(=O)NCC(=O)N[C@@H](CCCNC(=N)N)C(=O)N[C@@H](CC(C)C)C(=O)N[C@@H](CCCCC)C(=O)N2CCC[C@H]2C(=O)N[C@@H](C(C)C)C(=O)N[C@@H](CCC(=O)O)C(=O)N[C@H](C(=O)NCC(N)=O)CSCC(=O)N[C@@H](Cc2ccc3ccccc3c2)C(=O)N[C@@H](Cc2ccc(O)cc2)C(=O)N[C@@H](CC(=O)O)C1=O [Ex 1286] ({CH2CO}-[2Nal]YD[NHexGly]YLGRL[Ahp(2)]PVECG-NH2; thioether N-14),IC50,[1],39.2 nM
CCCCCCN1CC(=O)N[C@@H](Cc2ccc(O)cc2)C(=O)N[C@@H](CC(C)C)C(=O)N[C@@H](CC(N)=O)C(=O)N[C@@H](CCCNC(=N)N)C(=O)N(C)[C@@H](CO)C(=O)N[C@@H](CCCCC)C(=O)N2CCC[C@H]2C(=O)N[C@@H](C(C)(C)C)C(=O)N[C@@H](CO)C(=O)N[C@H](C(=O)N[C@@H](CC(=O)NCCOCCOCC(=O)N[C@@H](CC(=O)O)C(=O)NCCOCCOCC(=O)NCCCCCCCCCCC(=O)O)C(=O)O)CSCC(=O)N[C@@H](Cc2ccccc2)C(=O)N[C@@H](Cc2ccc(O)cc2)C(=O)N[C@@H](CC(=O)O)C1=O [compound 2068] ({CH2CO}-FYD[NHexGly]YLNR[NMeS][Ahp(2)]P[Tle]SC[βAsp][AEEA]D[AEEA][Aun]-OH; thioether N-14),IC50,"cell-based binding high-content assay, mVISTA, read-out: HC CBA miPrISTA IC50",29.9 nM
CCCCCCN1CC(=O)N[C@@H](Cc2ccc(O)cc2)C(=O)N[C@@H](CC(C)C)C(=O)N[C@@H](CC(N)=O)C(=O)N[C@@H](CCCNC(=N)N)C(=O)N[C@@H](CC(C)C)C(=O)N[C@@H](CCCCC)C(=O)N2CCC[C@H]2C(=O)N[C@@H](C(C)C)C(=O)N[C@@H](CC(N)=O)C(=O)N[C@H](C(=O)NCC(N)=O)CSCC(=O)N[C@@H](Cc2ccccc2)C(=O)N[C@@H](Cc2ccc(O)cc2)C(=O)N[C@@H](CC(=O)O)C1=O [Example 1027] ({CH2CO}-FYD[NHexGly]YLNRL[Ahp(2)]PVNCG-NH2; thioether N-14),IC50,[3],36.8 nM
CCCCCCN1CC(=O)N[C@@H](Cc2ccc(O)cc2)C(=O)N[C@@H](CCCC)C(=O)N[C@@H](CC(=O)O)C(=O)N[C@@H](CCCNC(=N)N)C(=O)N[C@@H](CC(C)C)C(=O)N[C@@H](CCCCC)C(=O)N2CCC[C@H]2C(=O)N[C@@H](C(C)C)C(=O)N[C@@H](CC(=O)O)C(=O)N[C@H](C(=O)N[C@@H](CO)C(N)=O)CSCC(=O)N[C@@H](Cc2cccc(C)c2)C(=O)N[C@@H](Cc2ccc(O)cc2)C(=O)N[C@@H](CC(=O)O)C1=O [compound 1437] ({CH2CO}-[Phe(3-Me)]YD[NHexGly]Y[Nle]DRL[Ahp(2)]PVDCS-NH2; thioether N-14),IC50,[2],18.2 nM
